Converted amounts (≈) assume the structure as drawn.
What was measured:
Format in all cases: functional
Escherichia coli [1] = experiment: Antibacterial activity against extended-spectrum beta-lactamase-producing Escherichia coli 14-2 after 18 to 24 hrs by CLSI M100-S11 method
Klebsiella pneumoniae [2] = experiment: Antibacterial activity against Klebsiella pneumoniae 14-4 after 18 to 24 hrs by CLSI M100-S11 method
Klebsiella pneumoniae [3] = experiment: Antibacterial activity against extended-spectrum beta-lactamase-producing Klebsiella pneumoniae 14-18 after 18 to 24 hrs by CLSI M100-S11 method
Enterococcus faecium [4] = experiment: Antibacterial activity against Enterococcus faecium 14-1 after 18 to 24 hrs by CLSI M100-S11 method
Staphylococcus aureus [5] = experiment: Antibacterial activity against methicillin-sensitive Staphylococcus aureus 14-4 after 18 to 24 hrs by CLSI M100-S11 method
Enterococcus faecalis [6] = experiment: Antibacterial activity against Enterococcus faecalis 14-3 after 18 to 24 hrs by CLSI M100-S11 method
Pseudomonas aeruginosa [7] = experiment: Antibacterial activity against Pseudomonas aeruginosa 14-9 after 18 to 24 hrs by CLSI M100-S11 method
Klebsiella pneumoniae [8] = experiment: Antibacterial activity against extended-spectrum beta-lactamase-producing Klebsiella pneumoniae 14-19 after 18 to 24 hrs by CLSI M100-S11 method
Escherichia coli [9] = experiment: Antibacterial activity against Escherichia coli ATCC 25922 after 18 to 24 hrs by CLSI M100-S11 method
Enterococcus faecalis [10] = experiment: Antibacterial activity against Enterococcus faecalis 14-1 after 18 to 24 hrs by CLSI M100-S11 method
[11] = system: Staphylococcus epidermidis; experiment: Antibacterial activity against methicillin-resistant Staphylococcus epidermidis 14-22 after 18 to 24 hrs by CLSI M100-S11 method
Enterococcus faecalis [12] = experiment: Antibacterial activity against Enterococcus faecalis 14-2 after 18 to 24 hrs by CLSI M100-S11 method
Pseudomonas aeruginosa [13] = experiment: Antibacterial activity against Pseudomonas aeruginosa ATCC 27853 after 18 to 24 hrs by CLSI M100-S11 method
Klebsiella pneumoniae [14] = experiment: Antibacterial activity against Klebsiella pneumoniae 14-3 after 18 to 24 hrs by CLSI M100-S11 method
Staphylococcus aureus [15] = experiment: Antibacterial activity against Staphylococcus aureus CMCC 26003 after 18 to 24 hrs by CLSI M100-S11 method
Staphylococcus aureus [16] = experiment: Antibacterial activity against methicillin-sensitive Staphylococcus aureus 14-2 after 18 to 24 hrs by CLSI M100-S11 method
Streptococcus pneumoniae = experiment: Antibacterial activity against Streptococcus pneumoniae ATCC 19615 after 18 to 24 hrs by CLSI M100-S11 method
Escherichia coli [17] = experiment: Antibacterial activity against extended-spectrum beta-lactamase-producing Escherichia coli 14-1 after 18 to 24 hrs by CLSI M100-S11 method
Enterococcus faecium [18] = experiment: Antibacterial activity against Enterococcus faecium 14-2 after 18 to 24 hrs by CLSI M100-S11 method
Pseudomonas aeruginosa [19] = experiment: Antibacterial activity against Pseudomonas aeruginosa 14-14 after 18 to 24 hrs by CLSI M100-S11 method
Escherichia coli [20] = experiment: Antibacterial activity against Escherichia coli 14-2 after 18 to 24 hrs by CLSI M100-S11 method
Klebsiella pneumoniae [21] = experiment: Antibacterial activity against extended-spectrum beta-lactamase-producing Klebsiella pneumoniae 14-17 after 18 to 24 hrs by CLSI M100-S11 method
Staphylococcus aureus [22] = experiment: Antibacterial activity against methicillin-resistant Staphylococcus aureus 14-4 after 18 to 24 hrs by CLSI M100-S11 method
Staphylococcus aureus [23] = experiment: Antibacterial activity against methicillin-sensitive Staphylococcus aureus 14-3 after 18 to 24 hrs by CLSI M100-S11 method
Klebsiella pneumoniae [24] = experiment: Antibacterial activity against Klebsiella pneumoniae 14-1 after 18 to 24 hrs by CLSI M100-S11 method
[25] = system: Mycobacterium tuberculosis; experiment: Antimycobacterial activity against Mycobacterium tuberculosis H37Rv ATCC 27294 after 3 days by microplate Alamar Blue assay; conditions: H37Rv ATCC 27294, 72 h
Pseudomonas aeruginosa [26] = experiment: Antibacterial activity against Pseudomonas aeruginosa 14-16 after 18 to 24 hrs by CLSI M100-S11 method
Klebsiella pneumoniae [27] = experiment: Antibacterial activity against Klebsiella pneumoniae 14-2 after 18 to 24 hrs by CLSI M100-S11 method
[28] = system: Staphylococcus epidermidis; experiment: Antibacterial activity against methicillin-resistant Staphylococcus epidermidis 14-37 after 18 to 24 hrs by CLSI M100-S11 method
[29] = system: Staphylococcus epidermidis; experiment: Antibacterial activity against methicillin-sensitive Staphylococcus epidermidis 14-4 after 18 to 24 hrs by CLSI M100-S11 method
Pseudomonas aeruginosa [30] = experiment: Antibacterial activity against Pseudomonas aeruginosa 14-15 after 18 to 24 hrs by CLSI M100-S11 method
[31] = system: Staphylococcus epidermidis; experiment: Antibacterial activity against methicillin-resistant Staphylococcus epidermidis 14-39 after 18 to 24 hrs by CLSI M100-S11 method
Escherichia coli [32] = experiment: Antibacterial activity against Escherichia coli 14-1 after 18 to 24 hrs by CLSI M100-S11 method
Pseudomonas aeruginosa [33] = experiment: Antibacterial activity against Pseudomonas aeruginosa 14-19 after 18 to 24 hrs by CLSI M100-S11 method
Staphylococcus aureus [34] = experiment: Antibacterial activity against methicillin-resistant Staphylococcus aureus 14-5 after 18 to 24 hrs by CLSI M100-S11 method
[35] = system: Staphylococcus epidermidis; experiment: Antibacterial activity against methicillin-sensitive Staphylococcus epidermidis 14-6 after 18 to 24 hrs by CLSI M100-S11 method
[36] = system: Staphylococcus epidermidis; experiment: Antibacterial activity against methicillin-sensitive Staphylococcus epidermidis 14-2 after 18 to 24 hrs by CLSI M100-S11 method

Row | SMILES | MIC (Escherichia coli [1]) | MIC (Klebsiella pneumoniae [2]) | MIC (Klebsiella pneumoniae [3]) | MIC (Enterococcus faecium [4]) | MIC (Staphylococcus aureus [5]) | MIC (Enterococcus faecalis [6]) | MIC (Pseudomonas aeruginosa [7]) | MIC (Klebsiella pneumoniae [8]) | MIC (Escherichia coli [9]) | MIC (Enterococcus faecalis [10]) | MIC [11] | MIC (Enterococcus faecalis [12]) | MIC (Pseudomonas aeruginosa [13]) | MIC (Klebsiella pneumoniae [14]) | MIC (Staphylococcus aureus [15]) | MIC (Staphylococcus aureus [16]) | MIC (Streptococcus pneumoniae) | MIC (Escherichia coli [17]) | MIC (Enterococcus faecium [18]) | MIC (Pseudomonas aeruginosa [19]) | other results
1 | NC[C@@H]1/C(=N/OCc2ccccc2)CN1c1nc2c(cc1F)c(=O)c(C(=O)O)cn2-c1nc(N)c(F)cc1F | > 128 µg/mL | > 128 µg/mL | 128 µg/mL (≈ 237 µM) | > 128 µg/mL | 4 µg/mL (≈ 7.41 µM) | > 128 µg/mL | 128 µg/mL (≈ 237 µM) | > 128 µg/mL | 8 µg/mL (≈ 14.8 µM) | > 128 µg/mL | > 128 µg/mL | > 128 µg/mL | 128 µg/mL (≈ 237 µM) | > 128 µg/mL | 4 µg/mL (≈ 7.41 µM) | 4 µg/mL (≈ 7.41 µM) | 64 µg/mL (≈ 119 µM) | 128 µg/mL (≈ 237 µM) | 32 µg/mL (≈ 59.3 µM) | 128 µg/mL (≈ 237 µM) | MIC (Escherichia coli [20]): > 128 µg/mL; MIC (Klebsiella pneumoniae [21]): > 128 µg/mL; MIC (Staphylococcus aureus [22]): > 128 µg/mL; MIC (Staphylococcus aureus [23]): 8 µg/mL (≈ 14.8 µM); MIC (Klebsiella pneumoniae [24]): > 128 µg/mL; MIC [25]: > 32 µg/mL; MIC (Pseudomonas aeruginosa [26]): 128 µg/mL (≈ 237 µM); MIC (Klebsiella pneumoniae [27]): > 128 µg/mL; MIC [28]: > 128 µg/mL; MIC [29]: > 128 µg/mL; MIC (Pseudomonas aeruginosa [30]): 128 µg/mL (≈ 237 µM); MIC [31]: > 133 µg/mL; MIC (Escherichia coli [32]): > 128 µg/mL; MIC (Pseudomonas aeruginosa [33]): 128 µg/mL (≈ 237 µM); MIC (Staphylococcus aureus [34]): > 128 µg/mL; MIC [35]: > 128 µg/mL; MIC [36]: > 128 µg/mL
2 | CO/N=C1\CN(c2c(F)cc3c(=O)c(C(=O)O)cn(-c4nc(N)c(F)cc4F)c3c2Cl)CC1CN (stereo unspecified) | 64 µg/mL (≈ 125 µM) | 128 µg/mL (≈ 251 µM) | 16 µg/mL (≈ 31.3 µM) | > 128 µg/mL | 0.25 µg/mL (≈ 0.489 µM) | 32 µg/mL (≈ 62.6 µM) | 8 µg/mL (≈ 15.7 µM) | 128 µg/mL (≈ 251 µM) | 0.125 µg/mL (≈ 0.245 µM) | 16 µg/mL (≈ 31.3 µM) | 64 µg/mL (≈ 125 µM) | 64 µg/mL (≈ 125 µM) | 4 µg/mL (≈ 7.83 µM) | 128 µg/mL (≈ 251 µM) | 0.03 µg/mL (≈ 0.0587 µM) | 0.06 µg/mL (≈ 0.117 µM) | 16 µg/mL (≈ 31.3 µM) | 2 µg/mL (≈ 3.91 µM) | 8 µg/mL (≈ 15.7 µM) | 8 µg/mL (≈ 15.7 µM) | MIC (Escherichia coli [20]): 64 µg/mL (≈ 125 µM); MIC (Klebsiella pneumoniae [21]): 32 µg/mL (≈ 62.6 µM); MIC (Staphylococcus aureus [22]): 128 µg/mL (≈ 251 µM); MIC (Staphylococcus aureus [23]): 0.125 µg/mL (≈ 0.245 µM); MIC (Klebsiella pneumoniae [24]): 64 µg/mL (≈ 125 µM); MIC [25]: 30.5 µg/mL (≈ 59.7 µM); MIC (Pseudomonas aeruginosa [26]): 8 µg/mL (≈ 15.7 µM); MIC (Klebsiella pneumoniae [27]): > 128 µg/mL; MIC [28]: 64 µg/mL (≈ 125 µM); MIC [29]: 32 µg/mL (≈ 62.6 µM); MIC (Pseudomonas aeruginosa [30]): 8 µg/mL (≈ 15.7 µM); MIC [31]: 32 µg/mL (≈ 62.6 µM); MIC (Escherichia coli [32]): 64 µg/mL (≈ 125 µM); MIC (Pseudomonas aeruginosa [33]): 8 µg/mL (≈ 15.7 µM); MIC (Staphylococcus aureus [34]): 128 µg/mL (≈ 251 µM); MIC [35]: 64 µg/mL (≈ 125 µM); MIC [36]: 64 µg/mL (≈ 125 µM)
3 | CO/N=C1\CCN(c2c(F)cc3c(=O)c(C(=O)O)cn(-c4nc(N)c(F)cc4F)c3c2Cl)CC1N (stereo unspecified) | > 128 µg/mL | > 128 µg/mL | 128 µg/mL (≈ 251 µM) | > 128 µg/mL | 0.5 µg/mL (≈ 0.979 µM) | > 128 µg/mL | 64 µg/mL (≈ 125 µM) | > 128 µg/mL | 1 µg/mL (≈ 1.96 µM) | > 128 µg/mL | > 128 µg/mL | > 128 µg/mL | 16 µg/mL (≈ 31.3 µM) | > 128 µg/mL | 0.5 µg/mL (≈ 0.979 µM) | 0.5 µg/mL (≈ 0.979 µM) | 64 µg/mL (≈ 125 µM) | 64 µg/mL (≈ 125 µM) | 16 µg/mL (≈ 31.3 µM) | 64 µg/mL (≈ 125 µM) | MIC (Escherichia coli [20]): > 128 µg/mL; MIC (Klebsiella pneumoniae [21]): > 128 µg/mL; MIC (Staphylococcus aureus [22]): > 128 µg/mL; MIC (Staphylococcus aureus [23]): 0.25 µg/mL (≈ 0.489 µM); MIC (Klebsiella pneumoniae [24]): > 128 µg/mL; MIC [25]: > 32 µg/mL; MIC (Pseudomonas aeruginosa [26]): 128 µg/mL (≈ 251 µM); MIC (Klebsiella pneumoniae [27]): > 128 µg/mL; MIC [28]: > 128 µg/mL; MIC [29]: 128 µg/mL (≈ 251 µM); MIC (Pseudomonas aeruginosa [30]): 64 µg/mL (≈ 125 µM); MIC [31]: > 128 µg/mL; MIC (Escherichia coli [32]): > 128 µg/mL; MIC (Pseudomonas aeruginosa [33]): 128 µg/mL (≈ 251 µM); MIC (Staphylococcus aureus [34]): > 128 µg/mL; MIC [35]: 128 µg/mL (≈ 251 µM); MIC [36]: > 128 µg/mL
